In brackets after ≈: the same amount, converted by molar mass. Activity calls are given as the source filed them. The calls are words filed in the database; no cut-off is given here.
Legend:
[1] = test system: Aspergillus flavus; experiment: Antifungal activity against Aspergillus flavus after 72 to 96 hr by two-fold serial dilution method; assay type: functional
[2] = test system: Aspergillus niger; experiment: Antifungal activity against Aspergillus niger after 72 to 96 hr by two-fold serial dilution method; assay type: functional
[3] = test system: Rhizopus; experiment: Antifungal activity against Rhizopus sp. after 72 to 96 hr by two-fold serial dilution method; assay type: functional
[4] = test system: Cryptococcus neoformans; experiment: Antifungal activity against Cryptococcus neoformans after 72 to 96 hr by two-fold serial dilution method; assay type: functional
[5] = test system: Candida albicans; experiment: Antifungal activity against Candida albicans after 72 to 96 hr by two-fold serial dilution method; assay type: functional
[6] = test system: Staphylococcus aureus; experiment: Antibacterial activity against Staphylococcus aureus after 24 hr by two-fold serial dilution method; assay type: functional
[7] = test system: Escherichia coli; experiment: Antibacterial activity against Escherichia coli after 24 hr by two-fold serial dilution method; assay type: functional
[8] = test system: Salmonella typhi; experiment: Antibacterial activity against Salmonella enterica subsp. enterica serovar Typhi after 24 hr by two-fold serial dilution method; assay type: functional
[9] = test system: Pseudomonas aeruginosa; experiment: Antibacterial activity against Pseudomonas aeruginosa after 24 hr by two-fold serial dilution method; assay type: functional
[10] = test system: Klebsiella pneumoniae; experiment: Antibacterial activity against Klebsiella pneumoniae after 24 hr by two-fold serial dilution method; assay type: functional
[11] = test system: Aspergillus niger; experiment: Ratio of amphotericin-B MIC to compound MIC for Aspergillus niger; assay type: functional
[12] = test system: Cryptococcus neoformans; experiment: Ratio of amphotericin-B MIC to compound MIC for Cryptococcus neoformans; assay type: functional
[13] = test system: Aspergillus flavus; experiment: Antifungal activity against Aspergillus flavus at 200 ug/ml after 72 to 96 hr by two-fold serial dilution method; assay type: functional, organism-based
[14] = test system: Rhizopus; experiment: Antifungal activity against Rhizopus sp. at 200 ug/ml after 72 to 96 hr by two-fold serial dilution method; assay type: functional, organism-based
[15] = test system: Candida albicans; experiment: Antifungal activity against Candida albicans at 200 ug/ml after 72 to 96 hr by two-fold serial dilution method; assay type: functional, organism-based
[16] = test system: Klebsiella pneumoniae; experiment: Antibacterial activity against Klebsiella pneumoniae at 200 ug/mL after 24 hr by two-fold serial dilution method; assay type: functional, organism-based
[17] = test system: Klebsiella pneumoniae; experiment: Ratio of ciprofloxacin MIC to compound MIC for Klebsiella pneumoniae; assay type: functional
[18] = test system: Staphylococcus aureus; experiment: Ratio of ciprofloxacin MIC to compound MIC Staphylococcus aureus; assay type: functional
[19] = test system: Escherichia coli; experiment: Ratio of ciprofloxacin MIC to compound MIC for Escherichia coli; assay type: functional
[20] = test system: Salmonella typhi; experiment: Ratio of ciprofloxacin MIC to compound MIC for Salmonella enterica subsp. enterica serovar Typhi; assay type: functional

| Structure (SMILES) | MIC [1] | MIC [2] | MIC [3] | MIC [4] | MIC [5] | MIC [6] | MIC [7] | MIC [8] | MIC [9] | MIC [10] | Ratio [11] | Ratio [12] | inhibition [13] | inhibition [14] | inhibition [15] | inhibition [16] | Ratio [17] | Ratio [18] | Ratio [19] | Ratio [20] |
| --- | --- | --- | --- | --- | --- | --- | --- | --- | --- | --- | --- | --- | --- | --- | --- | --- | --- | --- | --- | --- |
| C[C@@H]1[C@H](O)[C@@H](C)/C=C/C=C/C=C/C=C/C=C/C=C/C=C/[C@H](O[C@@H]2O[C@H](C)[C@@H](O)[C@H](N)[C@@H]2O)C[C@@H]2O[C@](O)(C[C@@H](O)C[C@@H](O)[C@H](O)CC[C@@H](O)C[C@@H](O)CC(=O)O[C@H]1C)C[C@H](O)[C@H]2C(=O)O [AMPHOTERICIN B] | 50 mg/L (≈ 54.1 µM) | 50 mg/L (≈ 54.1 µM) | 25 mg/L (≈ 27.1 µM) | 25 mg/L (≈ 27.1 µM) | 25 mg/L (≈ 27.1 µM) | – | – | – | – | – | – | – | – | – | – | – | – | – | – | – |
| CN1C(c2ccc(Cl)cc2)CC(=NOCc2ccccc2)CC1c1ccc(Cl)cc1 (centres undefined) | 200 mg/L (≈ 455 µM) | 100 mg/L (≈ 228 µM) | 200 mg/L (≈ 455 µM) | 50 mg/L (≈ 114 µM) | 100 mg/L (≈ 228 µM) | 200 mg/L (≈ 455 µM) | 50 mg/L (≈ 114 µM) | 100 mg/L (≈ 228 µM) | 100 mg/L (≈ 228 µM) | 100 mg/L (≈ 228 µM) | – | – | – | – | – | – | – | – | – | – |
| Cc1ccc(C2C/C(=N/OCc3ccccc3)C(C)C(c3ccc(C)cc3)N2C)cc1 (centres undefined) | 50 mg/L (≈ 121 µM) | 25 mg/L (≈ 60.6 µM) | 25 mg/L (≈ 60.6 µM) | 12.5 mg/L (≈ 30.3 µM) | 50 mg/L (≈ 121 µM) | 50 mg/L (≈ 121 µM) | 50 mg/L (≈ 121 µM) | 50 mg/L (≈ 121 µM) | 25 mg/L (≈ 60.6 µM) | 50 mg/L (≈ 121 µM) | 2 | 2 | – | – | – | – | – | – | – | – |
| O=C(O)c1cn(C2CC2)c2cc(N3CCNCC3)c(F)cc2c1=O [CIPROFLOXACIN] | – | – | – | – | – | – | 25 mg/L (≈ 75.4 µM) | 50 mg/L (≈ 151 µM) | – | – | – | – | – | – | – | – | – | – | – | – |
| CC(C)C1/C(=N\OCc2ccccc2)CC(c2ccccc2)N(C)C1c1ccccc1 (centres undefined) | – | 100 mg/L (≈ 242 µM) | 200 mg/L (≈ 485 µM) | 25 mg/L (≈ 60.6 µM) | 50 mg/L (≈ 121 µM) | 100 mg/L (≈ 242 µM) | 50 mg/L (≈ 121 µM) | 50 mg/L (≈ 121 µM) | 50 mg/L (≈ 121 µM) | 100 mg/L (≈ 242 µM) | – | – | inactive | – | – | – | – | – | – | – |
| CN1C(c2ccccc2)CC(=NOCc2ccccc2)CC1c1ccccc1 (centres undefined) | – | 100 mg/L (≈ 270 µM) | – | 100 mg/L (≈ 270 µM) | – | 200 mg/L (≈ 540 µM) | 200 mg/L (≈ 540 µM) | 100 mg/L (≈ 270 µM) | 100 mg/L (≈ 270 µM) | – | – | – | inactive | inactive | inactive | inactive | – | – | – | – |
| COc1ccc(C2C/C(=N/OCc3ccccc3)C(C)C(c3ccc(OC)cc3)N2C)cc1 (centres undefined) | 25 mg/L (≈ 56.2 µM) | 25 mg/L (≈ 56.2 µM) | 12.5 mg/L (≈ 28.1 µM) | 12.5 mg/L (≈ 28.1 µM) | 25 mg/L (≈ 56.2 µM) | 12.5 mg/L (≈ 28.1 µM) | 25 mg/L (≈ 56.2 µM) | 50 mg/L (≈ 112 µM) | 12.5 mg/L (≈ 28.1 µM) | 25 mg/L (≈ 56.2 µM) | – | – | – | – | – | – | 2 | 2 | – | – |
| COc1ccc(C2CC(=NOCc3ccccc3)CC(c3ccc(OC)cc3)N2C)cc1 (centres undefined) | 50 mg/L (≈ 116 µM) | 50 mg/L (≈ 116 µM) | 50 mg/L (≈ 116 µM) | 50 mg/L (≈ 116 µM) | 100 mg/L (≈ 232 µM) | 50 mg/L (≈ 116 µM) | 100 mg/L (≈ 232 µM) | 50 mg/L (≈ 116 µM) | 100 mg/L (≈ 232 µM) | 100 mg/L (≈ 232 µM) | – | – | – | – | – | – | – | – | – | – |
| Cc1ccc(C2CC(=NOCc3ccccc3)CC(c3ccc(C)cc3)N2C)cc1 (centres undefined) | 100 mg/L (≈ 251 µM) | 50 mg/L (≈ 125 µM) | 50 mg/L (≈ 125 µM) | 50 mg/L (≈ 125 µM) | 100 mg/L (≈ 251 µM) | 100 mg/L (≈ 251 µM) | 50 mg/L (≈ 125 µM) | 100 mg/L (≈ 251 µM) | 100 mg/L (≈ 251 µM) | 100 mg/L (≈ 251 µM) | – | – | – | – | – | – | – | – | – | – |
| CCC1/C(=N\OCc2ccccc2)CC(c2ccccc2)N(C)C1c1ccccc1 (centres undefined) | 100 mg/L (≈ 251 µM) | 50 mg/L (≈ 125 µM) | 100 mg/L (≈ 251 µM) | 50 mg/L (≈ 125 µM) | 100 mg/L (≈ 251 µM) | 100 mg/L (≈ 251 µM) | 100 mg/L (≈ 251 µM) | 50 mg/L (≈ 125 µM) | 25 mg/L (≈ 62.7 µM) | 200 mg/L (≈ 502 µM) | – | – | – | – | – | – | – | – | – | – |
| CC1/C(=N\OCc2ccccc2)CC(c2ccc(Cl)cc2)N(C)C1c1ccc(Cl)cc1 (centres undefined) | 50 mg/L (≈ 110 µM) | 25 mg/L (≈ 55.1 µM) | 100 mg/L (≈ 221 µM) | 25 mg/L (≈ 55.1 µM) | 100 mg/L (≈ 221 µM) | 50 mg/L (≈ 110 µM) | 12.5 mg/L (≈ 27.6 µM) | 25 mg/L (≈ 55.1 µM) | 50 mg/L (≈ 110 µM) | 25 mg/L (≈ 55.1 µM) | – | – | – | – | – | – | 1 | – | 1 | 1 |
| CC1/C(=N\OCc2ccccc2)CC(c2ccccc2)N(C)C1c1ccccc1 (centres undefined) | 100 mg/L (≈ 260 µM) | 50 mg/L (≈ 130 µM) | – | 100 mg/L (≈ 260 µM) | 200 mg/L (≈ 520 µM) | 100 mg/L (≈ 260 µM) | 100 mg/L (≈ 260 µM) | 100 mg/L (≈ 260 µM) | 50 mg/L (≈ 130 µM) | – | – | – | – | inactive | – | inactive | – | – | – | – |
